The values that follow come from patent US20090175848A1, “Modulation of the Cooperativity Between the Ion Channels TRPM5 and TRPA1” (priority 2007, published 2009).

For one experiment, the system named is parental HEK-293 cells. The experiment in a line: FLIPR calcium assay in untransfected cells. The class given is cell-based, human. The following applies: untransfected (parental HEK-293) cells. The method, then: For hTRPM5-293 or HEK293 assays, cells were seeded overnight in poly-D-lysine coated 384-well plates at 15,000 cells per well in 20 μl of media. For assays of hTrpM5-CHO-M1 assays cells were seeded overnight in tissue culture treated 384-well plates at 10,000 cells per well in 20 μl of media. The assay was performed using a fluorometric imaging plate reader (FLIPR-Tetra™, Molecular Devices, Sunnyvale, Calif.), using the excitation 510-545 nm and emission 565-625 nm filter sets. The cells were loaded with 20 μl/well of Membrane Potential Assay Kit RED dye (Molecular Devices), in a 37° C. and 5% CO2 incubator for 1 hour. To measure intracellular calcium changes, the Calcium 3 dye (Molecular Devices) supplemented with 125 μM was used. […] The plates were read on the FLIPR® for a total of 3 minutes for a single addition assay and 6 minutes for a 2 addition assay. For single addition assays, baseline fluorescence was obtained on the FLIPR® for 10 seconds followed by addition of each sample by the FLIPR® and read for an additional 2 minutes and 50 seconds. For 2 addition assays, baseline fluorescence was obtained on the FLIPR® for 10 seconds followed by addition of the first sample (e.g. inhibitors, EGTA) by the FLIPR®, read for 2 minutes and 50 seconds, then followed by the addition of AITC and read for another 3 minutes. […]

The subject of experiment [1] is Chinese hamster ovary (CHO) cells expressing TRPM5. The experiment in a line: FLIPR assay in CHO cells expressing TRPM5. The following applies: TRPM5 expressed in CHO cells. Type of experiment: cell-based. The method, then: (§1) To create a stably transfected cell line expressing hTRPM5, 1.0×10^6 HEK 293 cells (ATCC, Manassas, Va.) were seeded in 35 mm tissue culture dishes (Falcon, BD Biosciences, Bedford, Mass.) and grown overnight in a 37° C. and 5% CO2 incubator, in culture medium consisting of DMEM, 10% fetal bovine serum (FBS), and penicillin with streptomycin. The next day, the cells were transfected using 4 μg of pcDNA 3.2-hTRPM5 with 7 μl of Lipofectamine 2000 (Invitrogen), following the manufacturer's protocol. After two days in culture, the cells were replated at 1:10 and 1:100 dilution, and from those plates seeded at very low density in 96-well plates to isolate single-cell colonies. […]
For hTRPM5-293 or HEK293 assays, cells were seeded overnight in poly-D-lysine coated 384-well plates at 15,000 cells per well in 20 μl of media. […] The assay was performed using a fluorometric imaging plate reader (FLIPR-Tetra™, Molecular Devices, Sunnyvale, Calif.), using the excitation 510-545 nm and emission 565-625 nm filter sets. […] The plates were read on the FLIPR® for a total of 3 minutes for a single addition assay and 6 minutes for a 2 addition assay. For single addition assays, baseline fluorescence was obtained on the FLIPR® for 10 seconds followed by addition of each sample by the FLIPR® and read for an additional 2 minutes and 50 seconds. […]

The subject of experiment [2] is TRPM5-expressing HEK cells. The experiment can be described thus: Whole-cell electrophysiology in TRPM5-expressing HEK cells. The class given is cell-based, human. The following applies: whole-cell voltage clamp, voltage dependence. The protocol:
Whole-cell recordings of TRP channel currents were obtained from acutely trypsinized TRPM5-expressing HEK cells. The bath solution was Hank's Balanced Salt Solution, composed of (mM); 1.2 CaCl2, 0.5 MgCl2-6H2O, 0.4 MgSO4-7H2O, 5.3 KCl, 0.4 KH2PO4, 137.9 NaCl, 0.3 Na2HPO4-7H2O, and 5.5 D-Glucose, with 20 mM HEPES (Invitrogen), pH 7.4 (NaOH). The internal pipette solution contained, in mM: 135 glutamic acid, 8 NaCl, 3 CaCl2, 10 HEPES and 10 EGTA, pH 7.2 (CsOH) (Sigma). Calculated concentration of free calcium in internal solution was 77 nM (MaxChelator, Stanford University). Recording pipettes were pulled using a Flaming/Brown Micropipette Puller (Sutter Instruments), from fire-polished borosilicate glass, to approximately 2 MΩ. Voltage clamp recordings were obtained in whole cell mode using MultiClamp 700B amplifier and Digidata 1322A converter running on Clampex 9.2 software (Axon Instruments). Recordings were performed at room temperature. Series resistance was automatically compensated immediately after the break-in. Data were sampled at 5 kHz and filtered at 1 kHz. AITC was dissolved in bath solution and applied to the cells with a multi-barrel applicator (SF-72, Warner Instruments).

For experiment [3], the system named is TRPM5-expressing HEK-293 cells (TRPM5-293). The experiment in a line: FLIPR calcium assay in TRPM5-293 cells. Type of experiment: cell-based, human. The following applies: for effect on AITC calcium response: pre-treatment, then AITC, TRPM5-293 cells. The method, then:
as §1, with “colonies. To select individual clones, 1 mg/ml Geneticin (Invitrogen) was added to the culture medium. Once stably expressing clones were identified, the concentration of Geneticin was reduced to 0.25 mg/ml for expansion and maintenance.” for “colonies.”
For hTRPM5-293 or HEK293 assays, cells were seeded overnight in poly-D-lysine coated 384-well plates at 15,000 cells per well in 20 μl of media. […] The assay was performed using a fluorometric imaging plate reader (FLIPR-Tetra™, Molecular Devices, Sunnyvale, Calif.), using the excitation 510-545 nm and emission 565-625 nm filter sets. […] The plates were read on the FLIPR® for a total of 3 minutes for a single addition assay and 6 minutes for a 2 addition assay. For single addition assays, baseline fluorescence was obtained on the FLIPR® for 10 seconds followed by addition of each sample by the FLIPR® and read for an additional 2 minutes and 50 seconds. For 2 addition assays, baseline fluorescence was obtained on the FLIPR® for 10 seconds followed by addition of the first sample (e.g. inhibitors, EGTA) by the FLIPR®, read for 2 minutes and 50 seconds, then followed by the addition of AITC and read for another 3 minutes. For ΔRFU measurements, the baseline fluorescence signal (RFUmin) was subtracted from the peak fluorescence signal (RFUmax) at each compound concentration (RFUmax—RFUmin). ΔRFU values for individual concentrations were measured in triplicate, and s.d. reported as error bars.

For experiment [4] the test system is unchanged. The experiment can be described thus: FLIPR membrane potential assay in TRPM5-293 cells. The class given is cell-based, human. The following applies: for effect on AITC membrane potential response: pre-treatment, then AITC, TRPM5-293 cells. The protocol:
To create a stably transfected cell line expressing hTRPM5, 1.0×10^6 HEK 293 cells (ATCC, Manassas, Va.) were seeded in 35 mm tissue culture dishes (Falcon, BD Biosciences, Bedford, Mass.) and grown overnight in a 37° C. and 5% CO2 incubator, in culture medium consisting of DMEM, 10% fetal bovine serum (FBS), and penicillin with streptomycin. The next day, the cells were transfected using 4 μg of pcDNA 3.2-hTRPM5 with 7 μl of Lipofectamine 2000 (Invitrogen), following the manufacturer's protocol. After two days in culture, the cells were replated at 1:10 and 1:100 dilution, and from those plates seeded at very low density in 96-well plates to isolate single-cell colonies. To select individual clones, 1 mg/ml Geneticin (Invitrogen) was added to the culture medium. Once stably expressing clones were identified, the concentration of Geneticin was reduced to 0.25 mg/ml for expansion and maintenance. Clones were selected on the basis of their response to ATP (Sigma) and lonomycin (Sigma) in the FLIPR® assay using the Membrane Potential Assay Kit RED (Molecular Devices). Stable cell lines in chinese hamster ovary cells (CHO-M1) were created similarly except that 5.0×10^5 cells were plated in 35 mm dishes overnight and the selection medium consisted of F-12K/Ham's, 10% fetal bovine serum (FBS), 100 μg/ml of Geneticin, and 10 μg/ml Blasticidin S HCl, and penicillin with streptomycin. Stably expressing clones were maintained in the same medium except that the Balsticidin S HCl concentration was reduced to 5 μg/ml.
For hTRPM5-293 or HEK293 assays, cells were seeded overnight in poly-D-lysine coated 384-well plates at 15,000 cells per well in 20 μl of media. For assays of hTrpM5-CHO-M1 assays cells were seeded overnight in tissue culture treated 384-well plates at 10,000 cells per well in 20 μl of media. The assay was performed using a fluorometric imaging plate reader (FLIPR-Tetra™, Molecular Devices, Sunnyvale, Calif.), using the excitation 510-545 nm and emission 565-625 nm filter sets. The cells were loaded with 20 μl/well of Membrane Potential Assay Kit RED dye (Molecular Devices), in a 37° C. and 5% CO2 incubator for 1 hour. To measure intracellular calcium changes, the Calcium 3 dye (Molecular Devices) supplemented with 125 μM was used. The plates were equilibrated to room temperature for 15 minutes before the start of the assay. The compounds allyl isothiocyanate (AITC), cinnamaldehyde, EGTA, ionomycin, U73122, U73144 were purchased from Sigma-Aldrich (St. Louis, Mo.) and stocks prepared in DMSO. Samples were diluted in HBSS with 20 mM HEPES prior to the assay and 10 μl per well was added to the assay plate. The plates were read on the FLIPR® for a total of 3 minutes for a single addition assay and 6 minutes for a 2 addition assay. For single addition assays, baseline fluorescence was obtained on the FLIPR® for 10 seconds followed by addition of each sample by the FLIPR® and read for an additional 2 minutes and 50 seconds. For 2 addition assays, baseline fluorescence was obtained on the FLIPR® for 10 seconds followed by addition of the first sample (e.g. inhibitors, EGTA) by the FLIPR®, read for 2 minutes and 50 seconds, then followed by the addition of AITC and read for another 3 minutes. For ΔRFU measurements, the baseline fluorescence signal (RFUmin) was subtracted from the peak fluorescence signal (RFUmax) at each compound concentration (RFUmax—RFUmin). ΔRFU values for individual concentrations were measured in triplicate, and s.d. reported as error bars.

Setting [5] is: agonist added to TRPM5-293 cells, FLIPR.

The structures appear in SMILES notation.

On to `C=CCN=C=S` [AITC, allyl isothiocyanate], for which the intracellular calcium response result in the experiment with parental HEK-293 cells is “no response”. Moreover, in experiment [1], the “activation of TRPM5” value is listed as “does not activate”. In addition, the “desensitization of the AITC-activated current” value in experiment [2] is “delayed at positive membrane potentials”. Besides, the intracellular calcium levels result in experiment [3] (setting [5]) was “increase in intracellular calcium levels”. In addition, the EC50 in experiment [4] (Homo sapiens, HEK293, read-out: EC50 (tested concentration closest to it)) was approximately 3 µM. The EC90 in experiment [4] (Homo sapiens, HEK293, read-out: EC90 (tested concentration closest to it)) was approximately 33 µM. Moreover, the membrane potential response entry in experiment [4] (setting [5]) is “strong membrane potential response”.
As to `O=C(O)CN(CCOCCOCCN(CC(=O)O)CC(=O)O)CC(=O)O` [EGTA], the “effect on AITC calcium response” value in experiment [3] is listed as “inhibited the calcium response”. The “effect on AITC membrane potential response” value in experiment [4] is “altered the membrane potential”.
With `COc1ccc2c(c1)CC[C@@H]1[C@@H]2CC[C@]2(C)[C@@H](NCCCCCCN3C(=O)C=CC3=O)CC[C@@H]12` [U73122], the “effect on AITC calcium response” value in experiment [3] is “enhanced”. Also, the “effect on ionomycin membrane potential response” value in experiment [4] (ionomycin as stimulus) is “enhances”. Besides, the “effect on AITC membrane potential response” value in experiment [4] is “enhanced”.
